Reference: patent publication US4590193A, “3-(2-(4-phenylpiperazinylethyl)anilino)-isobenzofuranones, their method of preparation and their use as antihypertensive and antiallergic drugs” (Societe Cortial, S.A., priority 1982, dated 1986)

Tests used:
[1] = system: cutaneous reactions induced by serotonin; experiment: Cutaneous reactions induced by serotonin; type: in vivo, rats; settings: oral, rat
Protocol: (§1) The products of this invention were administered orally to rats in the model of the cutaneous reactions. These reactions were induced by intradermal administration of histamine, serotonin, or the 48/80 compound. The activity of these products is expressed as the percentage of reduction in the amount of blue dye having diffused at the injection point, and the obtained values for ED50 expressed in mg/kg are given in Table VI.

[2] = system: bronchospasm induced by a 0.3% histamine aerosol; experiment: In vivo antihistamine activity: bronchospasm induced by histamine aerosol in awake guinea pig; settings: 10 mg/kg oral in Tween
Protocol: The in vivo antihistamine activity is determined in the awake guinea pig by testing the bronchospasm induced by a 0.3% histamine aerosol. The antihistaminic activity of the present products is tested upon their oral administration in Tween.

[3] = system: contractions induced by serotonin on an isolated guinea pig ileum; experiment: In vitro antiserotonin activity: inhibition of serotonin-induced contractions of isolated guinea pig ileum; type: cell-based; settings: Cavia porcellus, serotonin 5.10^-7 g/ml
[4] = system: cutaneous passive anaphylaxis; experiment: Antiallergic activity: cutaneous passive anaphylaxis; type: in vivo, Sprague Dawley rats; settings: po; per os, rat, reduction of Evans blue diffused
Protocol: The antiallergic activity has been determined in Sprague Dawley rats by the test for cutaneous passive anaphylaxis. Anaphylaxis is induced by the intradermal administration of a serum rich in IgE, followed 24 hours later by the intravenous injection of a solution containing ovalbumin and Evans blue. The activity of the products to be tested, administered per os, is estimated as the percentage of reduction in the amount of Evans blue having diffused at the injection point. Table VI provides the ED50 expressed in mg/kg of certain products of this invention.

motility = experiment: Effect on motility in mice (actimeter), sedative; type: in vivo; settings: Mus musculus, oral, read-out: ED50 as a sedative (motility)
Protocol: (§2) When administered orally to spontaneously hypertensive rats at a rate of 50 mg/kg every 12 hours for five days, COR 34 41 causes a drop in the AP. The AP becomes stable at the end of the treatment, at a value of about 18 mm Hg below its initial value. The effect on motility when giving the present substances orally to mice, was tested by using an actimeter.

[5] = Intraperitoneal toxicity (mortality, LD50); settings: mouse, in vivo, ip; for mortality: read-out: percentage of mortality; for LD50: Bliss method
Protocol: (§3) The mortality induced by these substances was determined by using Swiss mice which were free of specific pathogenic organisms. The animals were kept in an air conditioned room for 24 to 48 hours prior to the beginning of the experiments. The substances were solubilized in Tween and administered either intragastrically or intraperitoneally.

[6] = system: cutaneous reactions induced by the 48/80 compound; experiment: Cutaneous reactions induced by 48/80 compound; type: in vivo, rats; settings: oral, rat
Protocol: as §1

[7] = system: cutaneous reactions induced by histamine; experiment: Cutaneous reactions induced by histamine; type: in vivo, rats; settings: oral, rat
Protocol: as §1

[8] = target: T1, contractions induced by histamine on a guinea pig ileum (Cavia porcellus, UniProt P31389); experiment: In vitro antihistamine activity: inhibition of histamine-induced contractions of guinea pig ileum; type: cell-based; settings: for Kb: competitive antagonism of histamine, read-out: pA2 (converted); for IC50: histamine 10^-8 g/l
T1 construct: on a guinea pig ileum; from tissue; host or cells: isolated guinea pig ileum
Protocol: The antagonist is administered at the same time as the agonist or before. In the latter case, the time of contact between the antagonist and the organ isolated before the introduction of the agonist is shown in Table III.

[9] = Oral toxicity (mortality), intragastric administration; settings: mouse, in vivo, read-out: percentage of mortality
Protocol: as §3

[10] = system: spontaneously hypertensive rats; experiment: Antihypertensive activity in spontaneously hypertensive rats, repeated oral administration; type: in vivo, rat; settings: 50 mg/kg orally every 12 hours for five days
Protocol: as §2

[11] = system: spontaneously hypertensive awake rat; experiment: Antihypertensive activity in spontaneously hypertensive awake rat, oral; type: in vivo
Protocol: In the spontaneously hypertensive awake rat the compound COR 34 41 causes a drop in AP of 18.8% at 25 mg/kg per os, and it causes a drop in AP of 19.3% at 50 mg/kg. The AP returns to normal at the end of an hour, at a dosage of 25 mg/kg, and at the end of 5 hours with a dosage of 50 mg/kg.
The compound COR 34 42 causes a AP drop of 15.6% at a dose of 50 mg/kg per os. The AP returns to normal at the end of 5 hours.

Swiss mice = settings: 14 days of observation; 20 wt. % "Tween" solution; range of lethal doses 946-1459; cited from earlier work
[12] = no time of contact printed (antagonist given at the same time as agonist)

T1 sequence (P31389 whole entry): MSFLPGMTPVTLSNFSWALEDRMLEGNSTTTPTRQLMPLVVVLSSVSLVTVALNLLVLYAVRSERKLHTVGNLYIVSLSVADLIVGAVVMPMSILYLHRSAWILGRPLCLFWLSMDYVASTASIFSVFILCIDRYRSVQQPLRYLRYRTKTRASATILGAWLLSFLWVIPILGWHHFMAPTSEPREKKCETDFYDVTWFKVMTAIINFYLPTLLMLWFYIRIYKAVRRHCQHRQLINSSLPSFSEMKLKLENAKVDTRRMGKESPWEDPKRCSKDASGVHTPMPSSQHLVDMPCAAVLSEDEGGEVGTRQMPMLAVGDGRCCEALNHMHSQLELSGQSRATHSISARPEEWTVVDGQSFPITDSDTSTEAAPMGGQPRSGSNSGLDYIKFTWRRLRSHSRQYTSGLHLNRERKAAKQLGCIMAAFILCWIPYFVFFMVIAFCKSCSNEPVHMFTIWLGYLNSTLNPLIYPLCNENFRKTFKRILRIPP

SMILES	ED50 [1] [mg/kg]	% of animals protected at 1 h [2] [%]	% of animals protected at 6 h [2] [%]	ED50 [4] [mg/kg]	ED50 (motility) [mg/kg]	mortality ([5]; 500 mg/kg) [%]	ED50 [6] [mg/kg]	ED50 [7] [mg/kg]	Kb [8] [nM]	mortality ([9]; 1000 mg/kg) [%]	mortality ([9]; 2000 mg/kg) [%]	mortality ([5]; 1000 mg/kg) [%]	other results
O=C1OC(Nc2ccccc2CCN2CCN(c3ccccc3)CC2)c2ccccc21 (stereo not drawn) [COR 34 30, 3-(2-(4-phenylpiperazinylethyl)anilino)-isobenzofuranone]	13.2	60	40	3.8	~50	0	11.2	12.1	20.4	0	0	–	IC50 ([3]; time of contact 5 mm): 9330 nM; mortality ([5]; 100 mg/kg): 0%; mortality ([5]; 200 mg/kg): 10%; mortality ([5]; 300 mg/kg): 0%; IC50 [8, 12]: 1040 nM; mortality ([9]; 3000 mg/kg): 10%
O=C1OC(Nc2ccccc2CCN2CCN(c3ccc(F)cc3)CC2)c2ccccc21 (stereo not drawn) [COR 34 37, 3-(2-(4-fluorophenylpiperazinylethyl)anilino)isobenzofuranone]	7.9	70	70	6.4	–	20	9.4	9.3	13.8	10	50	60	IC50 ([3]; time of contact 5 mm): 22700 nM; IC50 ([8]; time of contact 3 mm): 15.5 nM; mortality ([9]; 750 mg/kg): 0%
COc1ccccc1N1CCN(CCc2ccccc2NC2OC(=O)c3ccccc32)CC1 (stereo not drawn) [COR 34 41]	14	90	60	4.1	–	25	10.9	7.9	9.33	10	10	70	IC50 ([3]; time of contact 15 mm): 12600 nM; AP below its initial value at the end of the treatment [10]: about 18 mm Hg; AP returns to normal at the end of ([11]; 25 mg/kg per os): an hour; drop in AP ([11]; 25 mg/kg per os): 18.8%; AP returns to normal at the end of ([11]; 50 mg/kg per os): 5 h; drop in AP ([11]; 50 mg/kg per os): 19.3%; mortality ([5]; 400 mg/kg): 0%; mortality ([5]; 800 mg/kg): 35%; mortality ([5]; 900 mg/kg): 50%; LD50 [5]: 873 mg/kg; IC50 ([8]; time of contact 10 mm): 31.1 nM; mortality ([9]; 750 mg/kg): 0%
COc1ccc2c(c1OC)C(=O)OC2Nc1ccccc1CCN1CCN(c2ccc(Cl)cc2)CC1 (stereo not drawn) [COR 34 42, 3-(2-(4-p-chlorophenylpiperazinylethyl)-aniline)-6,7-dimethoxyisobenzofuranone]	–	–	–	14.8	10	–	–	–	–	0	0	–	AP returns to normal at the end of ([11]; 50 mg/kg per os): 5 h; drop in AP ([11]; 50 mg/kg per os): 15.6%; IC50 ([8]; time of contact 5 mm): 33 nM
COc1ccc2c(c1OC)C(=O)OC2Nc1ccccc1CCN1CCN(c2ccc(F)cc2)CC1 (stereo not drawn) [COR 34 43, 6,7-dimethoxy-3-(2-(4-p-fluorophenylpiperazinylethyl)-anilino)isobenzofuranone]	17.1	90	50	6.6	–	0	11.1	9.1	10.7	0	0	0	IC50 ([3]; time of contact 3 mm): 20500 nM; mortality ([5]; 800 mg/kg): 0%; IC50 [8, 12]: 3530 nM
COc1ccc2c(c1OC)C(=O)OC2Nc1ccccc1CCN1CCN(c2ccccc2)CC1 (stereo not drawn) [COR 34 47, 6,7-dimethoxy-3-(2-(4-phenylpiperazinylethyl)anilino)isobenzofuranone]	–	20	0	–	–	0	–	–	–	0	0	0	IC50 ([3]; time of contact 3 mm): 19700 nM; IC50 ([8]; time of contact 3 mm): 29 nM
COc1ccc2c(c1OC)C(=O)OC2Nc1ccccc1CCN1CCN(c2ccccc2C)CC1 (stereo not drawn) [COR 34 48]	–	40	10	–	9	0	–	–	–	0	0	0	IC50 ([3]; time of contact 5 mm): 6460 nM; IC50 ([8]; time of contact 5 mm): 55 nM
Cc1ccccc1N1CCN(CCc2ccccc2NC2OC(=O)c3ccccc32)CC1 (stereo not drawn) [COR 34 49, 3-(2-(4-(2-methylphenyl)piperazinylethyl)-aniline)isobenzofuranone]	–	30	20	–	18	0	–	–	–	0	0	20	IC50 ([8]; time of contact 10 mm): 80 nM
COc1ccc(N2CCN(CCc3ccccc3NC3OC(=O)c4ccccc43)CC2)cc1 (stereo not drawn) [COR 34 53, 3-(2-(4-methoxyphenylpiperazinylethyl)anilino)isobenzofuranone]	–	–	–	–	–	60	–	–	–	0	20	100	LD50 [5]: 500 mg/kg; IC50 ([8]; time of contact 5 mm): ~1500 nM
CC(CN1c2ccccc2Sc2ccccc21)N(C)C (stereo not drawn) [Promethazine, reference compound]	–	–	–	–	–	–	–	–	–	–	–	–	IC50 ([3]; time of contact 3 mm): 444 nM
Nc1ccccc1CCN1CCN(c2ccccc2)CC1 [product of Example 1, 2-(4-phenylpiperazinylethyl)aniline]	–	–	–	–	–	–	–	–	–	–	–	–	LD50 (Swiss mice): 1175 mg/kg
